The text below walks through data of patent US9409858B2, “Selective histone deactylase 6 inhibitors” (H. LEE MOFFITT CANCER CENTER AND RESEARCH INSTITUTE, INC., priority 2012, dated 2016).

Test [1] addresses human, recombinant full-length HDAC1 (Homo sapiens (Human), UniProt Q13547). As to the kind of experiment: HDAC inhibition assay, HDAC1. The class given is biochemical.
Test [2] has as its target human, recombinant full-length HDAC6 (Homo sapiens (Human), UniProt Q9UBN7). Briefly: HDAC inhibition assay, HDAC6.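 Also: recombinant full-length human HDAC1 and HDAC6 made in Sf9 cells, compound preincubated 5-10 min then substrate reaction 2 h at 30 °C, ten threefold dilutions from 30 µM.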 In kind it is biochemical.
The next test concerns the target HDAC3 (Homo sapiens (Human), UniProt O15379). As to the kind of experiment: HDAC isoform profile, HDAC3. The class given is biochemical. As to conditions: Table 3 isoform profile.
Test [3] concerns acetyl α-tubulin in B16 melanoma cells. As to the kind of experiment: Tubulin acetylation Western blot assay. The note with it: low nanomolar treatment, 24 h. The class given is cell-based, murine. How it is done: (§1) […]. B16 melanoma cells were plated at 10^5 cells/well in 12 well plates and allowed to adhere overnight. A 50 mM stock of compound was then added by serial dilutions in complete medium to the indicated concentrations. Cells were incubated for 24 h under humidified conditions (37° C., 5% CO2). Wells were then washed with cold PBS, and cells were lysed in a buffer containing 10 mM Tris-HCl pH 8.0, 10% SDS, […], 100 mM DTT, and 1× protease inhibitor (Roche). Cells were lysed for 30 min on ice and then sonicated for 8 min (8 cycles of 30 s on/30 s rest). Cells were then boiled for 10 min with 6× gel loading buffer and resolved on 4-15% gradient gels and subsequently transferred onto nitrocellulose membranes. Membranes were blocked with 5% milk in PBS-T and detection of specific antigens using antibodies against acetyl-H3 and H3 (Cell Signaling), and acetyl-α-tubulin and α-tubulin (Sigma). Bands were detected by scanning blots with LI-COR Odyssey imaging system using both 700 and 800 channels.
For orientation: In western blotting, separated proteins are transferred to a membrane and probed.

For test [4], the system named is histone H3 acetylation in B16 melanoma cells. As to the kind of experiment: Histone acetylation Western blot assay. In kind it is cell-based, murine. How it is done:
as §1

Test [5] has as its system B16 murine melanoma cells. As to the kind of experiment: B16 melanoma cell growth inhibition assay (MTS). In kind it is cell-based. How it is done: B16 murine melanoma cells were plated at 5×10^3/well in 96 well flat bottom plates. The following day, media was changed to that containing various concentrations of HDACi or matched DMSO vehicle concentrations diluted in complete medium done in triplicate. Cells were incubated for 48 hours at 37° C. and 5% CO2. […] Briefly, 20 μL of reagent were added per well and incubated at 37° C. for 3 hours. […] All values were then normalized and expressed as a percentage of medium control (100%).

Test [6] relates to JAK2/STAT3 phosphorylation. As to the kind of experiment: JAK2/STAT3 phosphorylation in B16 murine melanoma cells in vivo.
For test [7], the system named is antigen-specific T-cell responses. Briefly: Antigen-specific T-cell responses to vaccination in vivo. The note with it: in vivo treatment. More on the design: species or system mice.
The test system of another test is melanoma. As to the kind of experiment: Anti-melanoma effect in vivo. As to conditions: alone or in combination with anti-CLTA4.
In test [8] the test system is STAT3 phosphorylation and recruitment to the IL-10 gene promotor. As to the kind of experiment: STAT3 phosphorylation and recruitment to the IL-10 gene promotor in APCs. In kind it is cell-based.
For a further test, the system named is macrophages. Briefly: Immunological effects upon macrophages. In kind it is cell-based.
Test [9] deals with naIve and anergic T-cells. Briefly: In vitro antigen-presenting studies with treated macrophages. The class given is cell-based.
A further test concerns MCL. Briefly: Antitumor effect in MCL-bearing mice. The class given is in vivo.
[10] abbreviates: Table 1, mean of two experiments ± standard deviation, 10-point enzyme assay.

“Also recorded” adds a separate entry of the source.

Sequence of human, recombinant full-length HDAC1 (Q13547 whole entry): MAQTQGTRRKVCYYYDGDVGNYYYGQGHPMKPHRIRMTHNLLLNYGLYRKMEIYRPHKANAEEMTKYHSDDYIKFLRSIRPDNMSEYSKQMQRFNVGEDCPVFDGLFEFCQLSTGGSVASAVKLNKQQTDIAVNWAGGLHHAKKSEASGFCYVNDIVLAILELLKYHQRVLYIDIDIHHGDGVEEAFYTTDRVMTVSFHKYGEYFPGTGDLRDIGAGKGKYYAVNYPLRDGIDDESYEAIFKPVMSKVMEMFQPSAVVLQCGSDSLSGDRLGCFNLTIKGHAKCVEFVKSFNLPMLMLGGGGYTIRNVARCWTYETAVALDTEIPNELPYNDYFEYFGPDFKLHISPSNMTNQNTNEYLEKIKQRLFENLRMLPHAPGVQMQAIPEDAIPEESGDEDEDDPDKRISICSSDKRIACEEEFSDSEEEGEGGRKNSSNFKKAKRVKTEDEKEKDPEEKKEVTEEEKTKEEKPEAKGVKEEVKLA
Sequence of human, recombinant full-length HDAC6 (Q9UBN7 whole entry, canonical isoform): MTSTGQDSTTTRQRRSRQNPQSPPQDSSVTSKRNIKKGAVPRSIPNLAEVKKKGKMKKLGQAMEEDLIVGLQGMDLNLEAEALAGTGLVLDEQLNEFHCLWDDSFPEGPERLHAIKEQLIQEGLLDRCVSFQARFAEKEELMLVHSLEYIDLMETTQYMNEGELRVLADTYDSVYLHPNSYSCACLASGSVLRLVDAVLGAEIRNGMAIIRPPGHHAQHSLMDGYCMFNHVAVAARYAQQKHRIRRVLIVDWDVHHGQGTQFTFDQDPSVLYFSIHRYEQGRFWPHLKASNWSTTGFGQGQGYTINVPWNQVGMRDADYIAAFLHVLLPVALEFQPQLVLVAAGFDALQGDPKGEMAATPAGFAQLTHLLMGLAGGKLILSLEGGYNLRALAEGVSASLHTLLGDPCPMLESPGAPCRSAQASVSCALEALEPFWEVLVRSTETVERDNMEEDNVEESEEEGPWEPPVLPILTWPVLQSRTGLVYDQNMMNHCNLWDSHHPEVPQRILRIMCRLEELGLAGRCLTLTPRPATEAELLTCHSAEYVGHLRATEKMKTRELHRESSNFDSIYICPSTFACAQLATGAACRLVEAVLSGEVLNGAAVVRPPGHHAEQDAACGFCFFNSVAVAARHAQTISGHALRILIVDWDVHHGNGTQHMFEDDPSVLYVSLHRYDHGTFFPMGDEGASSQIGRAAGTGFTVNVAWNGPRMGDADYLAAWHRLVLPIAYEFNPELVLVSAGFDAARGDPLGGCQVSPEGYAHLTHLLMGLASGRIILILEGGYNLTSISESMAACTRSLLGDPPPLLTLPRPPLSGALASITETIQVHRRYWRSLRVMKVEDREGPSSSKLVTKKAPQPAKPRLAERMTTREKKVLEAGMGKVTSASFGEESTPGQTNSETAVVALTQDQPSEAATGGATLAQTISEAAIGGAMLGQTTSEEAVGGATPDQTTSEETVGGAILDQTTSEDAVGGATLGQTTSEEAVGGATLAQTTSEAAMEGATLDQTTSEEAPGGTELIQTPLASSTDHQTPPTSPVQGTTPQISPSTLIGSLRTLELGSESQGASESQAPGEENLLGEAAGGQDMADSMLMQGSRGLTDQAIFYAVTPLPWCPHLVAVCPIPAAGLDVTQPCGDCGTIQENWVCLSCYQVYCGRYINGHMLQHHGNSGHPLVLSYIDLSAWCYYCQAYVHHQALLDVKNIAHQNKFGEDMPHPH
Sequence of HDAC3 (O15379 whole entry, canonical isoform): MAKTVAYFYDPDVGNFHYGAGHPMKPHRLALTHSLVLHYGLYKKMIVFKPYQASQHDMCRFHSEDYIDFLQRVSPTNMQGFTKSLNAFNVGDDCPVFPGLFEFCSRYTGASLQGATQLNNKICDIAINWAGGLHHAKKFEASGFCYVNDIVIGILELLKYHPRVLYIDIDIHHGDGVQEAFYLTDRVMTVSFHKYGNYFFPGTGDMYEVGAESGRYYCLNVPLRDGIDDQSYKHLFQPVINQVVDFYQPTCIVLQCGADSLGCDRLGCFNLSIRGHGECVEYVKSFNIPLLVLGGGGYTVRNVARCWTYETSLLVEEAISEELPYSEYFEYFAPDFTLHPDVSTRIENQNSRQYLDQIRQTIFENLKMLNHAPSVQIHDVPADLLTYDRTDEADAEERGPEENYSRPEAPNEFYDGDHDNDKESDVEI
Sequence of HDAC3 (Q9Y618 395-489 partner): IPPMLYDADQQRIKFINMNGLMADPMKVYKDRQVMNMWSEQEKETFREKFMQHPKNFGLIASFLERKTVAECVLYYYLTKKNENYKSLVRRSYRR

As usually defined, the IC50 is the midpoint of a concentration-inhibition curve. For `COc1ccccc1NC(=O)NCc1ccc(C(=O)NO)cc1` [Compound 1], the IC50 is 265 ± 59 nM in test [1] (setting [10]) and 139 ± 27 nM in test [2] (setting [10]). Besides, the “Fold Selective (HDAC1/HDAC6)” value in test [2] (Table 1) was 2.
As for `COc1ccccc1NC(=O)N(CCCN(C)C)Cc1ccc(C(=O)NO)cc1` [Compound 5a, 4-((1-(3-(dimethylamino)propyl)-3-(2-methoxyphenyl)ureido)methyl)-N-hydroxybenzamide], the half-inhibitory concentration (IC50) stood at 2550 ± 540 nM in test [1] (setting [10]) and 458 ± 64 nM in test [2] (setting [10]). Also, the “Fold Selective (HDAC1/HDAC6)” value in test [2] (Table 1) is 6.
With `COc1ccccc1NC(=O)N(CCCO)Cc1ccc(C(=O)NO)cc1` [Compound 5b, N-hydroxy-4-((1-(3-hydroxypropyl)-3-(2-methoxyphenyl)ureido)methyl)-benzamide], the IC50 in test [1] (setting [10]) was 1910 ± 570 nM; in test [2] (setting [10]), 2.38 ± 0.38 nM. For the same compound, in test [2] (Table 1), the “Fold Selective (HDAC1/HDAC6)” value came to 803.
With `COc1ccccc1NC(=O)N(CCc1c[nH]c2ccccc12)Cc1ccc(C(=O)NO)cc1` [Compound 5c, 4-((1-(2-(1H-indol-3-yl)ethyl)-3-(2-methoxyphenyl)ureido)methyl)-N-hydroxybenzamide], the 50% inhibitory concentration (IC50) in [1] (setting [10]) is 8950 ± 770 nM; in [2] (setting [10]) it was 468 ± 130 nM. Further, the “Fold Selective (HDAC1/HDAC6)” value in test [2] (Table 1) is reported as 19.
For `COc1ccccc1NC(=O)N(CCc1ccc(O)cc1)Cc1ccc(C(=O)NO)cc1` [Compound 5d, N-hydroxy-4-((1-(4-hydroxyphenethyl)-3-(2-methoxyphenyl)ureido)methyl)-benzamide], in that order: 1690 ± 120 nM, 5.8 ± 0.5 nM and 292.
Regarding `COCCCN(Cc1ccc(C(=O)NO)cc1)C(=O)Nc1ccccc1` [Compound 5e, N-hydroxy-4-((1-(3-methoxypropyl)-3-phenylureido)methyl)benzamide], the IC50 in [1] (setting [10]) was found to be 5180 ± 130 nM; in [2] (setting [10]), 11.7 ± 1.7 nM. The “Fold Selective (HDAC1/HDAC6)” value in [2] (Table 1) is 443.
Taken in the same sequence, the figures for `COCCN(Cc1ccc(C(=O)NO)cc1)C(=O)Nc1ccccc1` [Compound 5f, N-hydroxy-4-((1-(2-methoxyethyl)-3-phenylureido)methyl)benzamide] were 2250 ± 420 nM, 9.26 ± 0.66 nM and 243.
As for `CCCCN(Cc1ccc(C(=O)NO)cc1)C(=O)Nc1ccccc1` [Compound 5g, 4-((1-butyl-3-phenylureido)methyl)-N-hydroxybenzamide], at HDAC3, the half-maximal inhibitory concentration (IC50) turned out to be 6680 ± 1750 nM. In addition, in [3], the “acetyl α-tubulin levels” value is recorded as “dose-dependant increase of acetyl α-tubulin levels; also recorded: increased acetyl-tubulin levels”. Besides, the “histone H3 acetylation” value in test [4] (concentrations of 1 and 10 μM) is “observable increase in histone H3 acetylation”; in [4] (low nanomolar treatment, 24 h), “without a concamanent elevation of histone H3 acetylation”.
Turning to `O=C(NO)c1ccc(CN(CCc2ccccc2)C(=O)Nc2ccccc2)cc1` [Compound 5h, N-hydroxy-4-((1-phenethyl-3-phenylureido)methyl)benzamide], the IC50 was 3120 ± 640 nM in [1] (setting [10]) and 14 ± 0.75 nM in test [2] (setting [10]). For the same compound, in [2] (Table 1), the “Fold Selective (HDAC1/HDAC6)” value was 222. The “growth inhibition of B16 melanoma cells (in words)” value in test [5] is “capable of inhibiting the growth of B16 melanoma cell line”.
As to `CCCCN(C(=O)NCc1ccc(C(=O)NO)cc1)c1ccccc1` [Compound 8a, 4-((3-butyl-3-phenylureido)methyl)-N-hydroxybenzamide], the concentration for half-maximal inhibition (IC50) worked out at 8120 ± 600 nM in [1] (setting [10]) and 25.2 ± 2.5 nM in test [2] (setting [10]). For the same compound, the “Fold Selective (HDAC1/HDAC6)” value in [2] (Table 1) came to 322.
For `COc1ccc(NC(=O)NCc2ccc(C(=O)NO)cc2)cc1` [Compound 9a], the IC50 in test [1] (setting [10]) came to 1060 nM; in test [2] (setting [10]), 8.3 nM. Besides, in [2] (Table 1), the “Fold Selective (HDAC1/HDAC6)” value was 128.
For `Cc1ccnc(NC(=O)NCc2ccc(C(=O)NO)cc2)c1` [Compound 9b], in that order: 579 nM, 2.2 nM and 263.
With `Cc1cc(NC(=O)NCc2ccc(C(=O)NO)cc2)no1` [Compound 9c], the figures for the IC50 in test [1] (setting [10]) and in test [2] (setting [10]) were 1000 nM and 6.9 nM, respectively. Further, the “Fold Selective (HDAC1/HDAC6)” value in test [2] (Table 1) was determined as 145.
`COc1ccccc1N1C(=O)N(Cc2ccc(C(=O)NO)cc2)C(C)(C)C1=O` [Compound 10a]: the IC50 in test [1] (Table 2, cyclic urea compounds) turned out to be 28600 nM. Further, in [2] (Table 2, cyclic urea compounds), the “Fold Selective (HDAC1/HDAC6)” value was 386 and the concentration for half-maximal inhibition (IC50) was determined as 74.2 nM.
On to `CC(C)[C@@H]1C(=O)N(c2ccccc2)C(=O)N1Cc1ccc(C(=O)NO)cc1` [Compound 10b], for which the half-maximal inhibitory concentration (IC50) in test [1] (Table 2, cyclic urea compounds) amounted to 11800 nM. Moreover, in [2] (Table 2, cyclic urea compounds), the “Fold Selective (HDAC1/HDAC6)” value amounted to 531 and the half-maximal inhibitory concentration (IC50) worked out at 22.2 nM.
With `O=C(NO)c1ccc(CN2C(=O)N[C@@H](Cc3ccccc3)C2=O)cc1` [Compound 11a], the half-inhibitory concentration (IC50) in [1] (Table 2, cyclic urea compounds) came to 7560 nM. Also, in [2] (Table 2, cyclic urea compounds), the “Fold Selective (HDAC1/HDAC6)” value is 295 and the 50% inhibitory concentration (IC50) is 25.6 nM.
In the case of `CN1CCc2c(c3ccccc3n2Cc2ccc(C(=O)NO)cc2)C1` [Tubastatin A], the JAK2/STAT3 phosphorylation result in test [6] is reported as “inhibits JAK2/STAT3 phosphorylation”. Also, the “antigen-specific T-cell responses to vaccination” value in test [7] is “augments antigen-specific CD4+ T-cell responses to vaccination”. For the same compound, the “antigen-specific T-cell responses to vaccination” value in [7] (listed as Tubastatin-A) is reported as “enhances antigen-specific T-cell responses to vaccination”. Moreover, the anti-melanoma effect entry in the test with melanoma is “anti-melanoma effect”. In addition, in test [8], the “STAT3 phosphorylation and recruitment to the IL-10 gene promotor” value was “decreased STAT3 phosphorylation and recruitment to the IL-10 gene promotor”. Moreover, in the test on macrophages, the IL-10 production result is listed as “inhibits IL-10 production” and the “expression of co-stimulatory molecules” value is listed as “increased the expression of co-stimulatory molecules”. The “activation of T-cells by treated macrophages” value in test [9] is “better activators of naIve T-cells and restore the responsiveness of anergic T-cells”. Moreover, in the test on MCL, the antitumor effect result is reported as “strong antitumor effect”.
